Test results published in PubChem BioAssay (NCI).
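Five compound concentrations were applied to cells in 96-well plates for 48 hours; endpoints were derived by simple linear interpolation of the resulting dose-response curve. TGI marks complete inhibition of growth.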

Experiments:
Experiment in all cases: inhibition of tumour cell growth, NCI panel, 48 h
HT29 colon = tested on: HT29 colon
IGROV1 ovarian = tested on: IGROV1 ovarian
MALME-3M melanoma = tested on: MALME-3M melanoma
MDA-N = tested on: MDA-N
NCI-H226 lung = tested on: NCI-H226 lung
NCI-H522 lung = tested on: NCI-H522 lung
NCI/ADR-RES ovarian = tested on: NCI/ADR-RES ovarian
OVCAR-3 ovarian = tested on: OVCAR-3 ovarian
OVCAR-8 ovarian = tested on: OVCAR-8 ovarian
SF-295 CNS = tested on: SF-295 CNS
SK-MEL-2 melanoma = tested on: SK-MEL-2 melanoma
SR leukemia = tested on: SR leukemia
U251 CNS = tested on: U251 CNS

SMILES	TGI (HT29 colon)	TGI (IGROV1 ovarian)	TGI (MALME-3M melanoma)	TGI (MDA-N)	TGI (NCI-H226 lung)	TGI (NCI-H522 lung)	TGI (NCI/ADR-RES ovarian)	TGI (OVCAR-3 ovarian)	TGI (OVCAR-8 ovarian)	TGI (SF-295 CNS)	TGI (SK-MEL-2 melanoma)	TGI (SR leukemia)	TGI (U251 CNS)
CC1CN=C(NS(=O)(=O)c2cc(C(=O)Nc3ccc(Cl)cc3)c(Cl)cc2S)NN1 (centres undefined)	> 100 µM	> 100 µM	39.1 µM	> 100 µM	68.8 µM	64.1 µM	> 100 µM	> 100 µM	59.3 µM	> 100 µM	71.2 µM	> 100 µM	> 100 µM
S=C(NCCc1ccccn1)N/N=C/c1ccccn1	> 100 µM	0.634 µM	> 56.5 µM	> 100 µM	0.986 µM	1.57 µM	> 100 µM	> 100 µM	> 100 µM	> 100 µM	9.9 µM	< 0.0182 µM	> 100 µM
CCCCCCCCCCCC(=O)OC[C@H](C[As](=O)(O)O)OC(=O)CCCCCCCCCCC	21.7 µM	4.07 µM	7.14 µM	14.8 µM	38.8 µM	5.09 µM	29.3 µM	19.3 µM	27.8 µM	27 µM	6.48 µM	> 100 µM	5.15 µM
